pIC50: −log10 of the molar value. A value given as a limit tells only on which side of the number the result lay.

In assay [1] the target is T1, Androgen receptor (Homo sapiens, UniProt P10275).
T1 sequence (P10275 whole entry): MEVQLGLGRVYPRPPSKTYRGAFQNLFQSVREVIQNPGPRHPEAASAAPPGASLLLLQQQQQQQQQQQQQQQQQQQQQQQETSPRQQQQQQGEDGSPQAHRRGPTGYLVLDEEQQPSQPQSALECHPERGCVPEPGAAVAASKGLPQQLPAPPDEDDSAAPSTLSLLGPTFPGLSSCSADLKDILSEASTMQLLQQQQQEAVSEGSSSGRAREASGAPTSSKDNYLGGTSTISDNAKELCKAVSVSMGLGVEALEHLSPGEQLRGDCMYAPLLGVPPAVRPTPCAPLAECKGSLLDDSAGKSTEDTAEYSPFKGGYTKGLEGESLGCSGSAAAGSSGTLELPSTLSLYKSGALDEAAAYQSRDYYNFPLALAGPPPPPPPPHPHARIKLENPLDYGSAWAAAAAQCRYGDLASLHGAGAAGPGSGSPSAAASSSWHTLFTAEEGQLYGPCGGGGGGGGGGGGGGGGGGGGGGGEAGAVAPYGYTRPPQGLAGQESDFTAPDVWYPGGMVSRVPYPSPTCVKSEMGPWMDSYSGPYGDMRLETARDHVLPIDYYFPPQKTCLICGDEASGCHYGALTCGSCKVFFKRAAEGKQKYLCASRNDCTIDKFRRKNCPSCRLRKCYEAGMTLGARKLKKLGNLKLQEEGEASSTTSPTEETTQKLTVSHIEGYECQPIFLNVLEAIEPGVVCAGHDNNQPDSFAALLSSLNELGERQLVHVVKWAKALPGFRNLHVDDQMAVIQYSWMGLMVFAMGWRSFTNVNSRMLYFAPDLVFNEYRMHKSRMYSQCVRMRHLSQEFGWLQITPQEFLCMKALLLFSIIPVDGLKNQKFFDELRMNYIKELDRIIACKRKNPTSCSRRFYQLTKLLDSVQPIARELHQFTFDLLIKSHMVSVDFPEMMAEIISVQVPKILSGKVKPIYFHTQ
Kind of assay: Binding affinity to human androgen receptor.

Assay [2] concerns the target T1, Androgen receptor. Briefly: Antagonist activity at human androgen receptor by cell based assay. Format: functional.
For assay [3], the system named is Syrian golden hamster. Briefly: Reduction of wax ester in Syrian golden hamster ear model at 3 % administered topically. Format: functional, Mesocricetus auratus. Details: scale not given: the % may be the effect or the level left.
Assay [4] deals with Syrian golden hamster. Kind of assay: Reduction of cholesterol ester in Syrian golden hamster ear model at 3 % administered topically. Format: functional, Mesocricetus auratus. Further details: scale not given: the % may be the effect or the level left.
The test system of assay [5] is Syrian golden hamster. Briefly: Reduction of cholesterol ester in Syrian golden hamster ear model at 1.5 % administered topically. Details: scale not given: the % may be the effect or the level left. Type of assay: functional, Mesocricetus auratus.
In assay [6] the test system is Syrian golden hamster. Briefly: Reduction of wax ester in Syrian golden hamster ear model at 1.5 % administered topically. Format: functional, Mesocricetus auratus. Details: scale not given: the % may be the effect or the level left.
The test system of assay [7] is Syrian golden hamster. Kind of assay: Reduction of cholesterol ester in Syrian golden hamster ear model at 2 % administered topically. Format: functional, Mesocricetus auratus. Details: scale not given: the % may be the effect or the level left.
Assay [8] relates to Syrian golden hamster. Briefly: Reduction of wax ester in Syrian golden hamster ear model at 2 % administered topically. Format: functional, Mesocricetus auratus. Details: scale not given: the % may be the effect or the level left.
In assay [9] the test system is Syrian golden hamster. Briefly: Reduction of cholesterol ester in Syrian golden hamster ear model at 1 % administered topically. Format: functional, Mesocricetus auratus. Further details: scale not given: the % may be the effect or the level left.
In assay [10] the test system is Syrian golden hamster. Briefly: Reduction of wax ester in Syrian golden hamster ear model at 1 % administered topically. Details: scale not given: the % may be the effect or the level left. Format: functional, Mesocricetus auratus.

By pIC50 is commonly meant −log10 of the IC50, conventionally taken in molar units. Turning to `CC1(C)CN(Cc2cccc(F)c2)C(=O)C1Oc1ccc(C#N)c(C(F)(F)F)c1` (racemic), the figures for the pIC50 at Androgen receptor [1] and against Androgen receptor [2] were 7.32 and 7.21, respectively. `COCCN1CC(C)(C)C(Oc2ccc(C#N)c(C(F)(F)F)c2)C1=O` (racemic): the pIC50 at Androgen receptor [1] was 5.75. Consider `CC1(C)CN(Cc2ccccc2)C(=O)C1Oc1ccc(C#N)c(C(F)(F)F)c1` (racemic), for which the figures for the pIC50 at Androgen receptor [1] and against Androgen receptor [2] were 7.52 and 7.96, respectively. On Androgen receptor [1], `CN1CC(C)(C)C(Oc2ccc(C#N)c(C(F)(F)F)c2)C1=O` (racemic) had a pIC50 of 5.92. For `CCCCN1CC(C)(C)C(Oc2ccc(C#N)c(C(F)(F)F)c2)C1=O` (racemic), the pIC50 at Androgen receptor [1] is 6.92; on Androgen receptor [2], 7.80. The compound `CC1(C)CN(Cc2ccc(O)cc2)C(=O)C1Oc1ccc(C#N)c(C(F)(F)F)c1` (racemic) gave a pIC50 against Androgen receptor [2] of 7.49. With `CCCC(C)N1CC(C)(C)C(Oc2ccc(C#N)c(C(F)(F)F)c2)C1=O` (racemic), the values for the pIC50 on Androgen receptor [1] and against Androgen receptor [2] were 6.70 and 8.22, respectively.

With `CC1(C)CN(Cc2ccccc2F)C(=O)C1Oc1ccc(C#N)c(C(F)(F)F)c1` (single isomer, unassigned; (+)), the Activity is 86% in the assay on Syrian golden hamster [3] and 70% with Syrian golden hamster [4]. Further, the values for the pIC50 at Androgen receptor [1] and on Androgen receptor [2] were 6.95 and 7.04, respectively. Consider `CCOC(=O)c1ccc(CN2CC(C)(C)C(Oc3ccc(C#N)c(C(F)(F)F)c3)C2=O)o1` (racemic), for which the pIC50 at Androgen receptor [1] was 6.78; against Androgen receptor [2], 7.01. Turning to `CC1(C)COC(=O)C1Oc1ccc(C#N)c(C(F)(F)F)c1` (racemic), the values for the pIC50 at Androgen receptor [1] and against Androgen receptor [2] were 6.95 and 7.15, respectively. For `CC1(C)CNC(=O)C1Oc1ccc(C#N)c(C(F)(F)F)c1` (racemic), in that order: 5.55 and 7.09. Take `COc1ccc(CN2CC(C)(C)C(Oc3ccc(C#N)c(C(F)(F)F)c3)C2=O)cc1` (racemic): the pIC50 at Androgen receptor [1] was 6.55. With `CCC(C)N1CC(C)(C)C(Oc2ccc(C#N)c(C(F)(F)F)c2)C1=O` (single isomer, unassigned; (+)), the pIC50 is 6.88 at Androgen receptor [1] and 7.49 against Androgen receptor [2]. Take `CSc1ccc(CN2CC(C)(C)C(Oc3ccc(C#N)c(C(F)(F)F)c3)C2=O)cc1` (single isomer, unassigned; (+)): the Activity stood at 75% in the assay on Syrian golden hamster [5] and 89% with Syrian golden hamster [6]. The pIC50 is 6.50 on Androgen receptor [1] and 7.55 against Androgen receptor [2]. For the compound `CCNC(=O)CN1CC(C)(C)C(Oc2ccc(C#N)c(C(F)(F)F)c2)C1=O` (racemic), the pIC50 at Androgen receptor [1] is 5.31. `CC1(C)CN(Cc2ccccc2O)C(=O)C1Oc1ccc(C#N)c(C(F)(F)F)c1` (racemic): the pIC50 against Androgen receptor [2] was 7.89. As to `CCCCN1CC(C)(C)C(Oc2ccc(C#N)c(C(F)(F)F)c2)C1=O` (single isomer, unassigned; (+)), the Activity with Syrian golden hamster [7] is on record as 66%; in the assay on Syrian golden hamster [8], 83%. The figures for the pIC50 at Androgen receptor [1] and on Androgen receptor [2] were 7.04 and 8.00, respectively. Take `CCCN1CC(C)(C)C(Oc2ccc(C#N)c(C(F)(F)F)c2)C1=O` (single isomer, unassigned; (+)): the figures for the pIC50 at Androgen receptor [1] and on Androgen receptor [2] were 6.65 and 7.08, respectively. The Activity with Syrian golden hamster [9] is 76%; with Syrian golden hamster [10], 85%. For the compound `CCCN1CC(C)(C)C(Oc2ccc(C#N)c(C(F)(F)F)c2)C1=O` (racemic), the pIC50 at Androgen receptor [2] is 7.62. Consider `CCC(C)N1CC(C)(C)C(Oc2ccc(C#N)c(C(F)(F)F)c2)C1=O` (stereo in doubt; 18), for which the pIC50 on Androgen receptor [1] was 5.01. Compound `CC(C)CCCN1CC(C)(C)C(Oc2ccc(C#N)c(C(F)(F)F)c2)C1=O` (racemic) had a pIC50 on Androgen receptor [1] of 6.10.

`CCCCCCN1CC(C)(C)C(Oc2ccc(C#N)c(C(F)(F)F)c2)C1=O` (racemic): at Androgen receptor [1], the pIC50 was 6.12. Still for that read-out and setting: in the case of `CC1(C)CN(Cc2cccnc2)C(=O)C1Oc1ccc(C#N)c(C(F)(F)F)c1` (racemic) it was 6.06.

As to `CC1(C)CN(Cc2cccc(O)c2)C(=O)C1Oc1ccc(C#N)c(C(F)(F)F)c1` (racemic), the pIC50 against Androgen receptor [2] was under 6.22. Take `CC1(C)COC(=O)[C@@H]1Oc1ccc(C#N)c(C(F)(F)F)c1`: the pIC50 at Androgen receptor [1] is 7.15; against Androgen receptor [2] it was 7.38.

For the compound `CC1(C)C(=O)N(c2ccc(C#N)c(C(F)(F)F)c2)C(=O)N1CCCCO` [RU-58841], in the assay on Syrian golden hamster [10], the Activity was found to be 95%.

As for `CSCCN1CC(C)(C)C(Oc2ccc(C#N)c(C(F)(F)F)c2)C1=O` (racemic), the pIC50 on Androgen receptor [1] is 5.61. `CC1(C)CN(Cc2ccccc2)C(=O)C1Oc1ccc(C#N)c(C(F)(F)F)c1` (single isomer, unassigned; (+)): the Activity in the assay with Syrian golden hamster [3] is 83%; in the assay on Syrian golden hamster [4], 68%. Moreover, the values for the pIC50 at Androgen receptor [1] and against Androgen receptor [2] were 7.00 and 7.42, respectively. Regarding `CC1(C)CN(Cc2nc(-c3ccccc3)no2)C(=O)C1Oc1ccc(C#N)c(C(F)(F)F)c1` (racemic), the pIC50 against Androgen receptor [2] was 7.27.

Regarding `CC1(C)COC(=O)[C@H]1Oc1ccc(C#N)c(C(F)(F)F)c1`, the pIC50 is 5.00 on Androgen receptor [1] and 6.00 against Androgen receptor [2].

`COC(=O)CN1CC(C)(C)C(Oc2ccc(C#N)c(C(F)(F)F)c2)C1=O` (racemic): at Androgen receptor [1], the pIC50 is 6.31. As for `CC1(C)CN(Cc2nc3ccccc3s2)C(=O)C1Oc1ccc(C#N)c(C(F)(F)F)c1` (racemic), the pIC50 on Androgen receptor [2] was 7.29. Regarding `CC1(C)CN(Cc2ccccn2)C(=O)C1Oc1ccc(C#N)c(C(F)(F)F)c1` (racemic), the pIC50 at Androgen receptor [1] was 6.12. On the same count and under the same terms, in the case of `CC1(C)CN(CCCO)C(=O)C1Oc1ccc(C#N)c(C(F)(F)F)c1` (racemic) it was 6.28; in that of `CCC(CC)CN1CC(C)(C)C(Oc2ccc(C#N)c(C(F)(F)F)c2)C1=O` (racemic), 6.35. The compound `COc1cccc(CN2CC(C)(C)C(Oc3ccc(C#N)c(C(F)(F)F)c3)C2=O)c1` (racemic) showed a pIC50 at Androgen receptor [2] of 6.51. Compound `CCOC(=O)CN1CC(C)(C)C(Oc2ccc(C#N)c(C(F)(F)F)c2)C1=O` (racemic) gave a pIC50 on Androgen receptor [1] of 5.45. The same measure, in the same setting: in the case of `Cc1nc(CN2CC(C)(C)C(Oc3ccc(C#N)c(C(F)(F)F)c3)C2=O)cs1` (racemic) it was 6.49. Turning to `CSc1ccc(CN2CC(C)(C)C(Oc3ccc(C#N)c(C(F)(F)F)c3)C2=O)cc1` (stereo in doubt; 38), the pIC50 at Androgen receptor [1] was 6.73; on Androgen receptor [2], 7.29.

Take `CC1(C)CN(Cc2ccncc2)C(=O)C1Oc1ccc(C#N)c(C(F)(F)F)c1` (racemic): on Androgen receptor [2], the pIC50 was under 6.22. With `CC1(C)CN(Cc2ccccc2F)C(=O)C1Oc1ccc(C#N)c(C(F)(F)F)c1` (racemic), the pIC50 at Androgen receptor [1] was 6.76; on Androgen receptor [2] it was 7.36. For `CC1(C)CN(Cc2noc(-c3ccccc3)n2)C(=O)C1Oc1ccc(C#N)c(C(F)(F)F)c1` (racemic), in that order: 7.08 and 7.40.

`CC1(C)CN(Cc2ccc(F)cc2)C(=O)C1Oc1ccc(C#N)c(C(F)(F)F)c1` (racemic): the pIC50 at Androgen receptor [2] was 6.70.

`COCN1CC(C)(C)C(Oc2ccc(C#N)c(C(F)(F)F)c2)C1=O` (racemic) had a pIC50 at Androgen receptor [1] of 6.29. Consider `COC(=O)c1csc(CN2CC(C)(C)C(Oc3ccc(C#N)c(C(F)(F)F)c3)C2=O)n1` (racemic), for which the pIC50 against Androgen receptor [2] was under 6.05.
